Test results as given in US11851459B2, “Methods and uses of modulators of anaphase promoting complex (APC) activity for treating cancer” (University of Saskatchewan, priority 2018, dated 2023).

Columns and labels:
[1] = tested on: APC (substrates Cyclin B, Securin, Cdc20, HURP); assay: APC substrate westerns in MDA-MB-231 cells expressing peptides; format: cell-based, human
Description: A. Transient transfection of the C43-4 peptide plasmid into human triple negative MDA-MB-231 breast cancer cells followed by Western blot analysis of lysates against Cyclin B, Securin and Cdc20 showing enhanced protein loss. B. Cells in A were treated with DOX (1 uM) for 48 hrs with cell viability measured using an MTT assay kit. The experiment was done in triplicate with standard error of the means shown.
A. Stable integration of C43-4 in MDA-MB-231 cells was established by selection of transfected cells on Geneticin for 7 days. Westerns against APC substrates show APC activation. B. Cells in A were treated with DOX (1 uM) for 48 hrs with cell viability measured using an MTT assay kit. Mean and SEM of 3 biological repeats.
A. TNBC MDA-MB-231 cells stably expressing APC binding peptides activate the APC. Cells were grown to confluence and then used to prepare protein lysates. The lysates were used to measure levels of the APC substrate CDC20, which will be reduced if the APC is activated. Cells stably expressing the pcDNA empty vector were used as a control. B. In a similar experiment, MDA-MB-231 cells stably expressing the APC binding peptides shown, or the empty vector control, were used to measure protein levels of the APC substrate HURP using Westerns. C. Triplicate blots as in B were scanned, normalized to tubulin and plotted. Error of the mean is shown. Significant changes are indicated. D. MDA-MB-231 cells stably expressing the empty pcDNA vector, or the C43-4 and C13-3 APC binding peptides, were treated with 1 μM Doxorubicin for 24 hrs. Cell viability was measured using an MTT viability assay.
The C43-4 peptide sequence was cloned into the human expression vector pcDNA. This construct was transiently, and stably, expressed in human breast cancer cell line MDA-MB-231. […] In 231 cells, which are triple negative, aggressive and somewhat resistant to Doxorubicin, the transiently and stably transfected C43-4 peptide resensitized them to DOX treatment (FIGS. 22B and 23B).
In FIG. 26B, MDA-MB-231 cells were also stably transfected with the peptides C1-8, C2-4B, C3-1B, and C9-5. Levels of the APC substrate HURP were measured in lysates prepared from these cells. […] The empty vector pcDNA was also stably expressed in 231 cells and used as a control.

[2] = tested on: apc5 temperature sensitive mutant and/or apc10Δ mutant; assay: Viability of APC mutant yeast (spot dilution); format: cell-based
From the text: Suitable APC activators also include APC activators that increase the cell viability of an wild-type and/or an APC mutant cell by at least 10%, at least 20%, at least 30%, at least 40%, at least 50%, at least 60%, at least 70% or at least 80% compared to a cell with wild-type APC function. […] Examples of yeast cells with defective APC function include apc5 and apc10 mutants. An example of an apc5 mutant is the apc5 temperature sensitive mutant described herein. An example of an apc10 mutant is the apc10 deletion mutant described herein. Viability of a yeast mutant can be measured for example, by the spot dilution assays described herein or any other method known in the art.
(§1) The reverse genetic screen utilized a yeast 2-hybrid (Y2H) protocol that selected for peptides that bound to the APC subunits Apc5 or Apc10 (see FIG. 8 for APC structure), to assess whether peptide-binding might modify APC function. Peptides that bound APC subunits were then assayed for those that suppressed APC mutant defects.
(§2) Over 100 peptides that bound either Apc5 or Apc10 were recovered from millions screened. Six peptides that reproducibly interacted with the Apc5 or Apc10 bait construct in Y2H assays were examined further. Vectors expressing these 6 peptides were transformed into WT or APC mutant cells and assessed for ts growth.

[3] = tested on: apc10Δ cells; assay: apc10Δ temperature sensitive growth, spot dilutions; format: cell-based, yeast; details: 30 and 34° C., weakly expressed on glucose
From the text: A. Yeast 2-hybrid (Y2H) cells expressing the APC subunit bait and the galactose inducible Apc10 peptide prey grown on glucose or galactose. Cells co-expressing the Apc5 or Apc10-bait and Apc10 aptamer-prey vectors were spotted onto the appropriate media, in the presence or absence of galactose (the aptamers are Gal inducible), to confirm Y2H interactions. Growth on trp^− his^− media ensures both plasmids are maintained. A Y2H interaction will drive expression of the ADE2 gene, allowing growth on ade^− media. B. Aptamers that bind Apc10 can suppress APC mutant phenotypes. Spot dilutions of apc10Δ cells expressing an empty vector control or the one of 6 Apc10 aptamers tested. Log phase cells were 10-fold serially diluted and spotted onto plates containing either 2% glucose or 2% galactose. The plates were then incubated at 30° C. (permissive temperature) and 34° C. (restrictive stress). C. Peptides identified as binding to the yeast Apc10 APC subunit using the Y2H screen increase growth of wildtype (WT) cells. […]
The six peptide expressing vectors were transformed into apc10Δ cells and assessed for temperature sensitive growth. […]
Over 100 peptides that bound either Apc5 or Apc10 were recovered from millions screened. […] Vectors expressing these 6 peptides were transformed into WT or APC mutant cells and assessed for ts growth.

[4] = biological target: T1, Apc10 (Saccharomyces cerevisiae, UniProt P53068); assay: Yeast 2-hybrid (Y2H) assay, Apc10 bait; format: binding
T1 construct: expressed in transfected cells; host or cells: yeast Y2H cells
T1 sequence (P53068 1-250): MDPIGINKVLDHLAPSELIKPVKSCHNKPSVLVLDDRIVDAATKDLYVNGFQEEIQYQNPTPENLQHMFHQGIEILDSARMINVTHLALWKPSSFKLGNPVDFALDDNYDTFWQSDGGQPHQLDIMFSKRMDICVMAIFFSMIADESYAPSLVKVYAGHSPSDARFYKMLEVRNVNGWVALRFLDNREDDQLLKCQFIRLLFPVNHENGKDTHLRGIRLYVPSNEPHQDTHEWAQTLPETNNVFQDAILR
Description: as §1
A library of random small peptides were cloned into a Thioredoxin (Trx) scaffold (see FIG. 9 for Trx-peptide structure) and expressed from a galactose-inducible Y2H prey vector in cells expressing the Apc10 bait vector (the modified Apc10 is still part of the complete APC complex). Six peptides that reproducibly interacted with the Apc10 bait construct in Y2H assays were identified (FIG. 1A) and were examined further. Cells will only grow in this assay if the peptide interacts with Apc5 or Apc10.
To identify peptides that bound to either Apc5 or Apc10 proteins using a yeast 2-hybrid (Y2H) screen, random small peptides were cloned into the TrxA scaffold (library provided by R. Geyer; FIG. 9) and expressed from a galactose-inducible Y2H prey vector in cells harboring either the APC5 or APC10 genes cloned into the Y2H bait vectors (APC5/APC10 bait constructs complement APC mutant defects).
as §2

[5] = transiently transfected MDA-MB-231

| Sequence | levels of the APC substrate CDC20 ([1]; MDA-MB-231 stably expressing peptides) | protein levels of CyclinB ([1]; stably transfected MDA-MB-231) | APC substrate Cdc20 [1, 5] | APC substrate Cyclin B [1, 5] | APC substrate Securin [1, 5] | viability of an APC mutant [2] | apc10Δ growth phenotype [3] | binds Apc10 in a yeast 2 hybrid assay [4] | levels of the APC substrate HURP ([1]; MDA-MB-231 stably transfected, normalized to tubulin) |
| --- | --- | --- | --- | --- | --- | --- | --- | --- | --- |
| NGSSHNDLRVRRLTLISRLC [C43-4] | reduce levels | reduced protein levels | reduced | reduced | reduced | increases the viability | suppressed the apc10Δ growth phenotype | Binds Apc10 | – |
| RMPQWWQWMWV [C2-4B] | – | – | – | – | – | increases the viability of an APC mutant | suppressed the apc10Δ growth phenotype | Binds Apc10 | Only C1-8 did not reduce HURP levels |
